One series has as its system T cells (PBMC). The series can be described thus: cells. Format: cell-based, human. The following applies: human PBMC, OKT3 30 ng/mL, [3H]thymidine; read-out: T cell prolif. IC50. On the procedure: Cell isolation and T cell proliferation assay:
Whole blood was obtained from healthy human blood donors. Peripheral blood mononuclear cells (“PBMC”) were isolated using Lymphoprep density-gradient centrifugation (Nycomed Amersham, Oslo, Norway), washed, counted and resuspended at 2×10^6 cells/mL in RPMI 1640 medium containing glutamine, 0.1 mg/mL gentamycin and 10% heat inactivated human serum. PBMC were transferred to 96-well plates (2×10^5 cells/well) containing compound or vehicle control, with the final concentration of DMSO not to exceed 0.3%, and incubated for 1 hour before addition of the activating anti-CD3 antibody, OKT3 (30ng/mL). After 24 hours in culture, the cells were pulsed with [^3H]thymidine (1 μCi/well) overnight and harvested the next day onto 96-well Packard GF/C filter plates using a Packard Cell Harvester (Packard Instruments, Meriden, Conn.). The filter plate was dried, the bottom of the plate sealed, 25 μL of Microscint 20 scintillation fluid added to each well, the top of the plate sealed with TopSeal-A, and the plate counted on a Packard TopCount. The data from the TopCount is transferred into Excel 5 (Microsoft, Redmond, Wash.) and formatted for EC50 determination using Prism software (GraphPad Software, San Diego, Calif.).

The target of series [1] is T1, CD45 (Homo sapiens, UniProt P08575).
T1 construct: incubating the cytosolic portion of CD45 with the compounds and p-nitrophenyl phosphate (pNPP); purchased BIOMOL (Plymouth Meeting, Pa.)
T1 sequence (P08575 599-1306 limits assumed): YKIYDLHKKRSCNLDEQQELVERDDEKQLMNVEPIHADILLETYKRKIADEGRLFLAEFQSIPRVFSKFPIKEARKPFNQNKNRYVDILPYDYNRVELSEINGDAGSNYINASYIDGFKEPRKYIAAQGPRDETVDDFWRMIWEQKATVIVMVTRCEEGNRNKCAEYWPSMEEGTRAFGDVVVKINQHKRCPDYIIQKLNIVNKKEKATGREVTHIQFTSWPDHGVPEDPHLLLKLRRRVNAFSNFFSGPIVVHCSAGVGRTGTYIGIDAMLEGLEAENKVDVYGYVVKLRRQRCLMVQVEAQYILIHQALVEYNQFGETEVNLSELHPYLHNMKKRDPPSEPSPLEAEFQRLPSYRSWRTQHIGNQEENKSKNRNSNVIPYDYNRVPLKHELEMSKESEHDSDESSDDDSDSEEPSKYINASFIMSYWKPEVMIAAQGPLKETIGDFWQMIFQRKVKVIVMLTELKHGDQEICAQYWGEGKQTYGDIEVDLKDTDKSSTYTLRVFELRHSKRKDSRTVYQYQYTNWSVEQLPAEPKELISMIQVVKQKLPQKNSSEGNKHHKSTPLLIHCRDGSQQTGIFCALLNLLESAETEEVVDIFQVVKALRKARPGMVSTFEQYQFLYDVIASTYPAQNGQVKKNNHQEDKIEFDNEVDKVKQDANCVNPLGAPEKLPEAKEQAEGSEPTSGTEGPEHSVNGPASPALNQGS
The series can be described thus: Phosphatase assay using lck 10-mer as substrate. Format: biochemical. The conditions noted are these: CD45 phosphatase, lck carboxy-terminal peptide TEGQpYQPQP substrate, pH 7.2; read-out: Ick IC50. On the procedure:
Phosphatase assay using lck 10-mer as substrate:
Phosphatase activity was assayed in 96 well plates in a buffer containing final concentrations of 25 mM HEPES at pH 7.2, 5 mM DTT and 10 μg/mL BSA using the lck carboxy-terminal peptide TEGQpYQPQP as the substrate (Cho, H., Krishnaraj, R., Itoh, M., Kitas, E., Bannwarth, W., Saito, H., Walsh, C. T. 1993. Substrate specificities of catalytic fragments of protein tyrosine phosphatases (HPTPb, LAR, and CD45) toward the phosphotyrosylpeptide substrates and thiophosphotyrosylated peptides as inhibitors. Protein Science 2:977-984). Compounds were tested in a range from 30 to 0.01 μM in a final concentration of 5% DMSO. Enzyme was incubated with substrate with or without compound, at room temperature for 1.5 h. At the end of the incubation period, BIOMOL “Green Reagent” (BIOMOL, Plymouth Meeting, Pa.) was added to each well, the plates incubated at room temperature for 30 min and absorbance read at 620 nm.

The target of series [2] is T1, CD45. As to the kind of experiment: Phosphatase assay using pNPP as substrate. The conditions noted are these: CD45 phosphatase, pNPP substrate, pH 7.0; read-out: pNPP IC50. Format: biochemical. On the procedure:
Phosphatase assay using pNPP as substrate:
CD45 enzyme was obtained from BIOMOL (Plymouth Meeting, Pa.). Phosphatase activity was assayed in a buffer containing final concentrations of 25 mM imidazole at pH 7.0, 50 mM NaCl, 2.5 mM ethylenediaminetetraacetic acid (“EDTA”), 5 mM dithiothreitol (“DTT”) and 10 μg/mL bovine serum albumin (“BSA”) using pNPP as a substrate.

Series [3] in a line: Cytotoxicity assay (Calcein-AM uptake). The following applies: human, PHA-expanded T-cell lymphoblasts from PBMC.
Protocol: Calcein-AM (Molecular Probes. Eugene, Oreg.) uptake, as a quantitative measure of cell viability, was used to evaluate the toxic effect of compounds on T cells.
The T-cell lymphoblasts were purified by separation over Lymphoprep, plated at 2×10^5/well in a round bottom 96-well plate containing RPMI with compound and incubated overnight at 37° C. in an incubator containing 5% CO2. The dilution scheme and culture media were the same as those used in the T-cell proliferation assay. After the incubation period, cells were washed with Dulbecco's phosphate-buffered saline (D-PBS) and incubated with 1 μM Calcein-AM for 30-45 mim in D-PBS as described in the technical sheet provided with The LIVE/DEAD Viability/Cytotoxicity Kit from Molecular Probes.

Usually IC50 stands for the concentration at which inhibition is half-maximal. The CC50 is the concentration at which the toxic effect on the cells reaches its halfway point. For the molecule `O=C1C(=O)c2cc([N+](=O)[O-])ccc2-c2ccccc21` [Example 92, 2-Nitro-phenanthrene-9,10-dione], the IC50 in the series with T cells (PBMC) came to 1.6 µM; on CD45 [1] it was 5.4 µM; at CD45 [2] it was 2.4 µM. In series [3], the CC50 is 10 µM.

Regarding `COC(=O)CCCCCCCCC(=O)Nc1ccc2c(c1)C(=O)C(=O)c1cccc(NC(=O)CCCCCCCCC(=O)OC)c1-2` [Example 76, 9-[5-(9-Methoxycarbonyl-nonanoylamino)-9,10-dioxo-9,10-dihydro-phenanthren-2-ylcarbamoyl]-nonanoic Acid Methyl Ester], the IC50 is 7 µM in the series with T cells (PBMC), > 30 µM at CD45 [1] and 9.3 µM at CD45 [2]. Further, the CC50 in series [3] was > 30 µM.

On to `CCCC(=O)Nc1ccc2c(c1)C(=O)C(=O)c1ccccc1-2` [Example 3, N-(9,10-Dioxo-9,10-dihydro-phenanthren-2-yl)-butyramide], for which the half-maximal inhibitory concentration (IC50) worked out at 1.1 µM in the series with T cells (PBMC), 17 µM at CD45 [1] and 0.7 µM at CD45 [2]. Further, the CC50 in series [3] is 8.2 µM.

In the case of `COC(=O)CCC(=O)Nc1cccc2c1C(=O)C(=O)c1ccccc1-2` [Example 91, N-(9,10-Dioxo-9,10-dihydro-phenanthren-1-yl)-succinamic Acid Methyl Ester], the IC50 in the series on T cells (PBMC) turned out to be 0.5 µM; at CD45 [1], 4.7 µM; on CD45 [2] it was 0.4 µM. Further, in series [3], the CC50 was 9 µM.

Turning to `O=C1C(=O)c2cc(NC(=O)C(Cl)(Cl)Cl)ccc2-c2ccccc21` [Example 7, 2,2,2-Trichloro-N-(9,10-dioxo-9,10-dihydro-phenanthren-2-yl)-acetamide], the IC50 in the series with T cells (PBMC) turned out to be 0.5 µM; at CD45 [1], 13 µM; at CD45 [2], 0.5 µM. In addition, the CC50 in series [3] was 9 µM.

In the case of `COC(=O)CCCCCCCCC(=O)Nc1cccc2c1-c1ccccc1C(=O)C2=O` [Example 69, 9-(9,10-Dioxo-9,10-dihydro-phenanthren-4-ylcarbamoyl)-nonanoic Acid Methyl Ester], the IC50 in the series with T cells (PBMC) amounted to 4.6 µM; on CD45 [1], 4.8 µM; at CD45 [2] it was 0.6 µM. Besides, the CC50 in series [3] was 14 µM.

For the molecule `Nc1cccc2c1-c1ccccc1C(=O)C2=O` [Example 89, 4-Amino-phenanthrene-9,10-dione], the IC50 stood at 0.2 µM in the series on T cells (PBMC), 2.9 µM at CD45 [1] and 0.8 µM at CD45 [2]. In addition, the CC50 in series [3] was 9 µM.

As for `Cc1ccc(S(=O)(=O)Nc2ccc3c(c2)C(=O)C(=O)c2ccccc2-3)cc1` [Example 15, N-(9,10-Dioxo-9,10-dihydro-phenanthren-2-yl)-4-methyl-benzenesulfonamide], the results for the concentration for half-maximal inhibition (IC50) with T cells (PBMC), on CD45 [1] and on CD45 [2] were 6.4 µM, 15 µM and 1 µM, respectively. For the same molecule, in series [3], the 50% cytotoxic concentration (CC50) was > 30 µM.

Take `CC(C)(C)OC(=O)CNC(=O)c1ccc2c(c1)C(=O)C(=O)c1ccccc1-2` [Example 103, [(9,10-Dioxo-9,10-dihydro-phenanthrene-2-carbonyl)-amino]-acetic acid tert-butyl ester]: the IC50 in the series with T cells (PBMC) was 0.4 µM; on CD45 [1], 4.9 µM; on CD45 [2] it was 0.6 µM. The CC50 in series [3] was 10 µM.

Turning to `COC(=O)CCC(=O)Nc1ccc2c(c1)C(=O)C(=O)c1cccc(NC(=O)CCC(=O)OC)c1-2` [Example 73, N-[5-(3-Methoxycarbonyl-propionylamino)-9,10-dioxo-9,10-dihydro-phenanthren-2-yl]-succinamic Acid Methyl Ester], the IC50 in the series with T cells (PBMC) is 5 µM; at CD45 [1], 3 µM; at CD45 [2], 0.5 µM. The CC50 in series [3] was 11 µM.

As to `CC(C)(C)C(=O)Nc1ccc2c(c1)-c1ccccc1C(=O)C2=O` [Example 10, N-(9,10-Dioxo-9,10-dihydro-phenenathren-3-yl)-2,2-dimethyl-propionamide], the IC50 in the series with T cells (PBMC) is 0.7 µM; on CD45 [1], 4.9 µM; at CD45 [2], 1.2 µM. Moreover, the cytotoxic concentration (CC50) in series [3] was 10 µM.

These data come from patent US20030207812A1, “Cd45 inhibitors” (priority 2002, published 2003).
